Laboratory results published in article PMC9014410, “Discovery of V-0219: A Small-Molecule Positive Allosteric Modulator of the Glucagon-Like Peptide-1 Receptor toward Oral Treatment for “Diabesity”” (Journal of Medicinal Chemistry, 2022).

Each compound was assayed against hGLP-1R (Homo sapiens, UniProt P43220) (assay: cAMP accumulation in HEK-293 cells expressing hGLP-1R (HEK-GLP-1 cells)). Details: HEK293, read-out: Potentiation of GLP-1 Emax at 10 ?M in a cAMP assay (%); 10 ?M compound (supplementary csv).
Assay type: cell-based
Description: After this time the culture medium was replaced by 20 μL fresh Opti-MEM containing 500 μM IBMX and 100 μM K579 and incubated with gentle stirring for 10 min at rt. […] Concentration-response curves were fitted to a 4-parameter logistic equation by using GraphPad Prism 2.1 software.

hGLP-1R, sequence (P43220 24-463): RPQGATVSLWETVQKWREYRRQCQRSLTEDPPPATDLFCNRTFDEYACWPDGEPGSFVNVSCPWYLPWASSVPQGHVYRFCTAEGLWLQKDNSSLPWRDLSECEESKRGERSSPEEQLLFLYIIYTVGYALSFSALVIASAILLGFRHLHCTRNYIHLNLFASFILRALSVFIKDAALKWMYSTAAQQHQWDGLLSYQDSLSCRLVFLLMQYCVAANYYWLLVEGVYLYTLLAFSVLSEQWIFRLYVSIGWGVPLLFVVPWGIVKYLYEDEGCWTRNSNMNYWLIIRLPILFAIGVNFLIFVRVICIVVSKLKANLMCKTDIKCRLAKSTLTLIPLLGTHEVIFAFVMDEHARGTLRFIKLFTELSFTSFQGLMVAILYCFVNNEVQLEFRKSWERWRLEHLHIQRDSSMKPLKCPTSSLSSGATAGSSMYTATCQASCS

Row | Compound | Emax [%]
1 | CNc1ccc(-c2noc(CN3CCCC(CN4CCOCC4)C3)n2)cc1 (stereo not drawn) [S75] | < 30
2 | Clc1ccccc1-c1noc(CN2CCCC(CN3CCOCC3)C2)n1 (stereo not drawn) [S79] | < 30
3 | COC(=O)c1cccc(-c2noc(CN3CCCC(CN4CCOCC4)C3)n2)c1 (stereo not drawn) [S82] | < 30
4 | CCCS(=O)(=O)NC(=O)C1CCN(Cc2nc(-c3ccc(C(F)(F)F)cc3)no2)CC1 [S38] | < 30
5 | Cc1ccc(-c2noc(CN3CCCC(CN4CCOCC4)C3)n2)cc1 (stereo not drawn) [S69] | < 30
6 | FC(F)(F)c1ccccc1-c1noc(CN2CCCC(CN3CCOCC3)C2)n1 (stereo not drawn) [S65] | < 30
7 | CNC(=O)c1ccc(-c2noc(CN3CCCC(CN4CCOCC4)C3)n2)cc1 (stereo not drawn) [S87] | < 30
8 | COc1ccc(Br)cc1S(=O)(=O)NC(=O)C1CCN(Cc2nc(-c3ccc(C(F)(F)F)cc3)no2)CC1 [S51] | < 30
9 | Clc1cccc(-c2noc(CN3CCCC(CN4CCOCC4)C3)n2)c1 (stereo not drawn) [S80] | < 30
10 | Cc1ccccc1S(=O)(=O)NC(=O)CC1CCN(Cc2nc(-c3ccc(C(F)(F)F)cc3)no2)CC1 [S60] | < 30
11 | Cc1ccccc1-c1noc(CN2CCCC(CN3CCOCC3)C2)n1 (stereo not drawn) [S67] | < 30
12 | CC(=O)c1cccc(S(=O)(=O)NC(=O)C2CCN(Cc3nc(-c4ccc(C(F)(F)F)cc4)no3)CC2)c1 [S40] | < 30
13 | COc1ccc(Br)cc1S(=O)(=O)NC(=O)CC1CCN(Cc2nc(-c3ccc(C(F)(F)F)cc3)no2)CC1 [S64] | < 30
14 | NC(=O)c1ccc(-c2noc(CN3CCCC(CN4CCOCC4)C3)n2)cc1 (stereo not drawn) [S85] | < 30
15 | O=S(=O)(Cc1ccccc1)NCC1CCN(Cc2nc(-c3ccc(C(F)(F)F)cc3)no2)CC1 [S22] | < 30
16 | O=C(NS(=O)(=O)Cc1ccccc1)C1CCN(Cc2nc(-c3ccc(C(F)(F)F)cc3)no2)CC1 [S39] | < 30
17 | NC(=O)c1cccc(-c2noc(CN3CCCC(CN4CCOCC4)C3)n2)c1 (stereo not drawn) [S84] | < 30
18 | COc1cccc(-c2noc(CN3CCCC(CN4CCOCC4)C3)n2)c1 (stereo not drawn) [S71] | < 30
19 | CC(=O)c1cccc(S(=O)(=O)NC(=O)CC2CCN(Cc3nc(-c4ccc(C(F)(F)F)cc4)no3)CC2)c1 [S55] | < 30
20 | CCS(=O)(=O)NC(=O)C1CCN(Cc2nc(-c3ccc(C(F)(F)F)cc3)no2)CC1 [S37] | < 30
21 | CNC(=O)c1cccc(-c2noc(CN3CCCC(CN4CCOCC4)C3)n2)c1 (stereo not drawn) [S86] | < 30
22 | Clc1ccc(-c2noc(CN3CCCC(CN4CCOCC4)C3)n2)cc1 (stereo not drawn) [S81] | < 30
23 | FC(F)(F)c1cccc(-c2noc(CN3CCCC(CN4CCOCC4)C3)n2)c1 (stereo not drawn) [S66] | < 30
24 | O=C(CC1CCN(Cc2nc(-c3ccc(C(F)(F)F)cc3)no2)CC1)NS(=O)(=O)Cc1ccccc1 [S54] | < 30

Next, values leading:

Row | Emax [%] | Compound
25 | < 30 | O=S(=O)(NC1CCN(Cc2nc(-c3ccc(C(F)(F)F)cc3)no2)CC1)c1ccc(F)cc1 [S14]
26 | < 30 | N#Cc1ccc(S(=O)(=O)NC2CCN(Cc3nc(-c4ccc(C(F)(F)F)cc4)no3)CC2)cc1 [S9]
27 | < 30 | O=S(=O)(NCC1CCN(Cc2nc(-c3ccc(C(F)(F)F)cc3)no2)CC1)c1ccc(OC(F)(F)F)cc1 [S36]
28 | < 30 | Cc1ccc([N+](=O)[O-])cc1S(=O)(=O)NC1CCN(Cc2nc(-c3ccc(C(F)(F)F)cc3)no2)CC1 [S19]
29 | < 30 | N#Cc1cccc(S(=O)(=O)NC2CCN(Cc3nc(-c4ccc(C(F)(F)F)cc4)no3)CC2)c1 [S8]
30 | < 30 | O=C(NS(=O)(=O)c1ccccc1Cl)C1CCN(Cc2nc(-c3ccc(C(F)(F)F)cc3)no2)CC1 [S44]
31 | < 30 | O=C(NS(=O)(=O)c1ccc(F)cc1)C1CCN(Cc2nc(-c3ccc(C(F)(F)F)cc3)no2)CC1 [S43]
32 | < 30 | O=S(=O)(NCC1CCN(Cc2nc(-c3ccc(C(F)(F)F)cc3)no2)CC1)c1ccc(C(F)(F)F)cc1 [S35]
33 | < 30 | N#Cc1cccc(S(=O)(=O)NCC2CCN(Cc3nc(-c4ccc(C(F)(F)F)cc4)no3)CC2)c1 [S26]
34 | < 30 | CC(=O)c1cccc(S(=O)(=O)NC2CCN(Cc3nc(-c4ccc(C(F)(F)F)cc4)no3)CC2)c1 [S4]
35 | < 30 | CS(=O)(=O)NC1CCN(Cc2nc(-c3ccc(C(F)(F)F)cc3)no2)CC1 [S1]
36 | < 30 | O=[N+]([O-])c1ccc(S(=O)(=O)NC2CCN(Cc3nc(-c4ccc(C(F)(F)F)cc4)no3)CC2)cc1 [S6]
37 | < 30 | O=C(NS(=O)(=O)c1ccc(Cl)cc1)C1CCN(Cc2nc(-c3ccc(C(F)(F)F)cc3)no2)CC1 [S46]
38 | < 30 | COc1ccc(S(=O)(=O)NC(=O)C2CCN(Cc3nc(-c4ccc(C(F)(F)F)cc4)no3)CC2)cc1 [S48]
39 | < 30 | O=C(CC1CCN(Cc2nc(-c3ccc(C(F)(F)F)cc3)no2)CC1)NS(=O)(=O)c1ccc(OC(F)(F)F)cc1 [S63]
40 | < 30 | Cc1ccccc1S(=O)(=O)NCC1CCN(Cc2nc(-c3ccc(C(F)(F)F)cc3)no2)CC1 [S33]

Row | Emax [%] | Compound
41 | < 30 | Cc1ccccc1S(=O)(=O)NC(=O)C1CCN(Cc2nc(-c3ccc(C(F)(F)F)cc3)no2)CC1 [S47]
42 | < 30 | O=C(CC1CCN(Cc2nc(-c3ccc(C(F)(F)F)cc3)no2)CC1)NS(=O)(=O)c1ccc(Cl)cc1 [S59]
43 | < 30 | O=S(=O)(NCC1CCN(Cc2nc(-c3ccc(C(F)(F)F)cc3)no2)CC1)c1cccc(F)c1 [S31]
44 | < 30 | O=S(=O)(NCC1CCN(Cc2nc(-c3ccc(C(F)(F)F)cc3)no2)CC1)c1ccc(F)cc1 [S32]
45 | < 30 | O=[N+]([O-])c1ccccc1S(=O)(=O)NCC1CCN(Cc2nc(-c3ccc(C(F)(F)F)cc3)no2)CC1 [S24]
46 | < 30 | O=S(=O)(NCC1CCN(Cc2nc(-c3ccc(C(F)(F)F)cc3)no2)CC1)c1ccc(Cl)cc1 [S30]
47 | < 30 | N#Cc1ccccc1S(=O)(=O)NC1CCN(Cc2nc(-c3ccc(C(F)(F)F)cc3)no2)CC1 [S7]
48 | < 30 | O=C(CC1CCN(Cc2nc(-c3ccc(C(F)(F)F)cc3)no2)CC1)NS(=O)(=O)c1ccc(F)cc1 [S57]
49 | < 30 | O=C(CC1CCN(Cc2nc(-c3ccc(C(F)(F)F)cc3)no2)CC1)NS(=O)(=O)c1cccc(F)c1 [S56]
50 | < 30 | O=C(NS(=O)(=O)c1ccccc1F)C1CCN(Cc2nc(-c3ccc(C(F)(F)F)cc3)no2)CC1 [S41]
51 | < 30 | O=S(=O)(NC1CCN(Cc2nc(-c3ccc(C(F)(F)F)cc3)no2)CC1)c1ccc(Cl)cc1 [S11]
52 | < 30 | O=S(=O)(NC1CCN(Cc2nc(-c3ccc(C(F)(F)F)cc3)no2)CC1)c1ccccc1F [S12]
53 | < 30 | COc1ccc(S(=O)(=O)NC(=O)CC2CCN(Cc3nc(-c4ccc(C(F)(F)F)cc4)no3)CC2)cc1 [S61]
54 | < 30 | O=S(=O)(NC1CCN(Cc2nc(-c3ccc(C(F)(F)F)cc3)no2)CC1)c1cccc(Cl)c1 [S10]
55 | < 30 | O=S(=O)(NC1CCN(Cc2nc(-c3ccc(C(F)(F)F)cc3)no2)CC1)c1ccc(C(F)(F)F)cc1 [S16]
56 | < 30 | O=S(=O)(NC1CCN(Cc2nc(-c3ccc(C(F)(F)F)cc3)no2)CC1)c1cccc(F)c1 [S13]

Each compound was assayed on INS-1 β-cells (assay: Insulin secretion by rat INS-1 / INS-1E insulinoma cells). Details: INS-1E cells, 0.5 mM glucose, 0.1 nM test substance; single representative experiment.
Assay type: cell-based
Description: The incubation was done using two types of culture media, defined as low glucose (0.5–3 mM) and high glucose (15 mM). […] Incubation with compounds lasted 30 min, and then the media was collected, centrifuged at 4 °C for 2 min until assayed for insulin using commercial ELISA kit.

Row | Compound | Insulin secreted [ng/mL]
57 | CC[C@H](C)[C@H](NC(=O)[C@H](Cc1ccccc1)NC(=O)[C@H](CCC(=O)O)NC(=O)[C@H](CCCCN)NC(=O)[C@H](C)NC(=O)[C@H](C)NC(=O)[C@H](CCC(N)=O)NC(=O)CNC(=O)[C@H](CCC(=O)O)NC(=O)[C@H](CC(C)C)NC(=O)[C@H](Cc1ccc(O)cc1)NC(=O)[C@H](CO)NC(=O)[C@H](CO)NC(=O)[C@@H](NC(=O)[C@H](CC(=O)O)NC(=O)[C@H](CO)NC(=O)[C@@H](NC(=O)[C@H](Cc1ccccc1)NC(=O)[C@@H](NC(=O)CNC(=O)[C@H](CCC(=O)O)NC(=O)[C@H](C)NC(=O)[C@@H](N)Cc1c[nH]cn1)[C@@H](C)O)[C@@H](C)O)C(C)C)C(=O)N[C@@H](C)C(=O)N[C@@H](Cc1c[nH]c2ccccc12)C(=O)N[C@@H](CC(C)C)C(=O)N[C@H](C(=O)N[C@@H](CCCCN)C(=O)NCC(=O)N[C@@H](CCCNC(=N)N)C(N)=O)C(C)C [GLP-1, GLP-1(7-36)-NH2, reference compound] | 25

Same assay, conditions: INS-1E cells, 0.5 mM glucose, 1 nM test substance; single representative experiment

Row | Compound | Insulin secreted [ng/mL]
58 | CC[C@H](C)[C@H](NC(=O)[C@H](Cc1ccccc1)NC(=O)[C@H](CCC(=O)O)NC(=O)[C@H](CCCCN)NC(=O)[C@H](C)NC(=O)[C@H](C)NC(=O)[C@H](CCC(N)=O)NC(=O)CNC(=O)[C@H](CCC(=O)O)NC(=O)[C@H](CC(C)C)NC(=O)[C@H](Cc1ccc(O)cc1)NC(=O)[C@H](CO)NC(=O)[C@H](CO)NC(=O)[C@@H](NC(=O)[C@H](CC(=O)O)NC(=O)[C@H](CO)NC(=O)[C@@H](NC(=O)[C@H](Cc1ccccc1)NC(=O)[C@@H](NC(=O)CNC(=O)[C@H](CCC(=O)O)NC(=O)[C@H](C)NC(=O)[C@@H](N)Cc1c[nH]cn1)[C@@H](C)O)[C@@H](C)O)C(C)C)C(=O)N[C@@H](C)C(=O)N[C@@H](Cc1c[nH]c2ccccc12)C(=O)N[C@@H](CC(C)C)C(=O)N[C@H](C(=O)N[C@@H](CCCCN)C(=O)NCC(=O)N[C@@H](CCCNC(=N)N)C(N)=O)C(C)C [GLP-1, GLP-1(7-36)-NH2, reference compound] | 28

Same assay, conditions: INS-1E cells, 0.5 mM glucose, 10 nM test substance; single representative experiment

Row | Compound | Insulin secreted [ng/mL]
59 | CC[C@H](C)[C@H](NC(=O)[C@H](Cc1ccccc1)NC(=O)[C@H](CCC(=O)O)NC(=O)[C@H](CCCCN)NC(=O)[C@H](C)NC(=O)[C@H](C)NC(=O)[C@H](CCC(N)=O)NC(=O)CNC(=O)[C@H](CCC(=O)O)NC(=O)[C@H](CC(C)C)NC(=O)[C@H](Cc1ccc(O)cc1)NC(=O)[C@H](CO)NC(=O)[C@H](CO)NC(=O)[C@@H](NC(=O)[C@H](CC(=O)O)NC(=O)[C@H](CO)NC(=O)[C@@H](NC(=O)[C@H](Cc1ccccc1)NC(=O)[C@@H](NC(=O)CNC(=O)[C@H](CCC(=O)O)NC(=O)[C@H](C)NC(=O)[C@@H](N)Cc1c[nH]cn1)[C@@H](C)O)[C@@H](C)O)C(C)C)C(=O)N[C@@H](C)C(=O)N[C@@H](Cc1c[nH]c2ccccc12)C(=O)N[C@@H](CC(C)C)C(=O)N[C@H](C(=O)N[C@@H](CCCCN)C(=O)NCC(=O)N[C@@H](CCCNC(=N)N)C(N)=O)C(C)C [GLP-1, GLP-1(7-36)-NH2, reference compound] | 34

Same assay, conditions: INS-1E cells, 0.5 mM glucose, 100 nM test substance; single representative experiment

Row | Compound | Insulin secreted [ng/mL]
60 | CC[C@H](C)[C@H](NC(=O)[C@H](Cc1ccccc1)NC(=O)[C@H](CCC(=O)O)NC(=O)[C@H](CCCCN)NC(=O)[C@H](C)NC(=O)[C@H](C)NC(=O)[C@H](CCC(N)=O)NC(=O)CNC(=O)[C@H](CCC(=O)O)NC(=O)[C@H](CC(C)C)NC(=O)[C@H](Cc1ccc(O)cc1)NC(=O)[C@H](CO)NC(=O)[C@H](CO)NC(=O)[C@@H](NC(=O)[C@H](CC(=O)O)NC(=O)[C@H](CO)NC(=O)[C@@H](NC(=O)[C@H](Cc1ccccc1)NC(=O)[C@@H](NC(=O)CNC(=O)[C@H](CCC(=O)O)NC(=O)[C@H](C)NC(=O)[C@@H](N)Cc1c[nH]cn1)[C@@H](C)O)[C@@H](C)O)C(C)C)C(=O)N[C@@H](C)C(=O)N[C@@H](Cc1c[nH]c2ccccc12)C(=O)N[C@@H](CC(C)C)C(=O)N[C@H](C(=O)N[C@@H](CCCCN)C(=O)NCC(=O)N[C@@H](CCCNC(=N)N)C(N)=O)C(C)C [GLP-1, GLP-1(7-36)-NH2, reference compound] | 32
